We go through 2 molecules from ChEMBL document CHEMBL1201862, “PubChem BioAssay data set” (2004).

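Grown in 96-well plates, cells were treated for 48 hours with each compound at five concentrations. Insufficient inhibition: endpoint recorded as highest concentration tested. GI50: concentration for 50% inhibition of growth.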 The source made the active and inactive calls. No stated cut-off is given here; in the data, active = GI50 up to about 1.1 µM and inactive = higher.

Some test systems named below: A498; A549; DU-145; HCC 2998; HCT-116; HL-60; HOP-62; HOP-92; IGROV-1; KM12; MDA-MB-231; MDA-MB-435; MOLT-4; NCI/ADR-RES; OVCAR-4; OVCAR-5; SF-268; SF-295; SN12C; UO-31.
Common to all, as to test: NCI anticancer screen, dose series, 48 h

As for `C=C1C(=O)O[C@@H]2C(=O)[C@@H](C)[C@@H]3C=CC(=O)[C@@]3(C)[C@@H](OC(=O)/C(C)=C\C)[C@H]12` [MULTISTATIN], the GI50 was 1.69 µM (inactive) in the assay with A498; 10.6 µM (inactive) in the assay on A549; 1.57 µM (inactive) in the assay on DU-145; 1.71 µM (inactive) with HCC 2998; 0.238 µM (active) in the assay on HCT-116; 0.132 µM (active) with HL-60. Besides, the GI50 in the assay on HOP-62 is 11.9 µM (inactive); in the assay on HOP-92, 0.393 µM (active); with IGROV-1, 1.48 µM (inactive); in the assay on KM12 it was 2.3 µM (inactive); with MDA-MB-231, 1.88 µM (inactive); with MDA-MB-435, 1.29 µM (inactive). Further, the GI50 with MOLT-4 was 0.41 µM (active); in the assay with NCI/ADR-RES, 2.37 µM (inactive); in the assay with OVCAR-4, 5.04 µM (inactive); with OVCAR-5, 2.22 µM (inactive); with SF-268 it was 1.69 µM (inactive); in the assay with SF-295, 13 µM (inactive). Further, the GI50 in the assay on SN12C was 1.42 µM (inactive); with UO-31, 1.21 µM (inactive).
For the molecule `O=C(O)CN(CC(=O)O)Cc1cc2c(cc1O)Oc1cc(O)c(CN(CC(=O)O)CC(=O)O)cc1C21OC(=O)c2ccccc21` [OFTASCEINE], the GI50 with A498, in the assay on A549, in the assay with DU-145, in the assay on HCC 2998, with HCT-116 and with HL-60 was > 100 µM (inactive) throughout. The GI50 with HOP-62, in the assay with HOP-92, with IGROV-1, in the assay on KM12, in the assay on MDA-MB-231 and with MDA-MB-435 was > 100 µM (inactive) throughout. In addition, the GI50 in the assay on MOLT-4, with NCI/ADR-RES, in the assay on OVCAR-4, in the assay with OVCAR-5, with SF-268 and with SF-295 was > 100 µM (inactive) each time. For the same molecule, the GI50 in the assay with SN12C and in the assay with UO-31 was > 100 µM (inactive) in each case.
